Measurements: ChEMBL document CHEMBL4004838, “Design and synthesis of novel phenyl -1, 4-beta-carboline-hybrid molecules as potential anticancer agents” (Eur J Med Chem, 2017)

Columns and labels:
Type in all cases: functional
RPMI-8226 = assay: Growth inhibition of human RPMI8226 cells incubated for 48 hrs by sulforhodamine B assay; details: RPMI-8226, 48 h
SNB-75 = assay: Growth inhibition of human SNB75 cells incubated for 48 hrs by sulforhodamine B assay; details: SNB-75, 48 h
OVCAR-3 = assay: Growth inhibition of human OVCAR3 cells incubated for 48 hrs by sulforhodamine B assay; details: OVCAR-3, 48 h
HL-60(TB) = assay: Growth inhibition of human HL-60(TB) cells assessed as cell growth at 0.01 uM incubated for 48 hrs by sulforhodamine B assay relative to control; details: HL-60, 48 h, read-out: Activity
A549 [1] = assay: Growth inhibition of human A549/ATCC cells assessed as cell growth at 0.01 uM incubated for 48 hrs by sulforhodamine B assay relative to control; details: A549, 48 h, read-out: Activity
EKVX = assay: Growth inhibition of human EKVX cells assessed as cell growth at 0.01 uM incubated for 48 hrs by sulforhodamine B assay relative to control; details: read-out: Activity
HOP-92 = assay: Growth inhibition of human HOP92 cells assessed as cell growth at 0.01 uM incubated for 48 hrs by sulforhodamine B assay relative to control; details: HOP-92, 48 h, read-out: Activity
NCI-H460 = assay: Growth inhibition of human NCI-H460 cells assessed as cell growth at 0.01 uM incubated for 48 hrs by sulforhodamine B assay relative to control; details: NCI-H460, 48 h, read-out: Activity
NCI-H522 [2] = assay: Growth inhibition of human NCI-H522 cells assessed as cell growth at 0.01 uM incubated for 48 hrs by sulforhodamine B assay relative to control; details: NCI-H522, 48 h, read-out: Activity
U-251 = assay: Growth inhibition of human U251 cells assessed as cell growth at 0.01 uM incubated for 48 hrs by sulforhodamine B assay relative to control; details: U-251, 48 h, read-out: Activity
MCF7 = assay: Growth inhibition of human MCF7 cells assessed as cell growth at 0.01 uM incubated for 48 hrs by sulforhodamine B assay relative to control; details: MCF7, 48 h, read-out: Activity
Hs-578T = assay: Growth inhibition of human Hs 578T cells assessed as cell growth at 0.01 uM incubated for 48 hrs by sulforhodamine B assay relative to control; details: read-out: Activity
T47D = assay: Growth inhibition of human T47D cells assessed as cell growth at 0.01 uM incubated for 48 hrs by sulforhodamine B assay relative to control; details: read-out: Activity
MDA-MB-468 = assay: Growth inhibition of human MDA-MB-468 cells assessed as cell growth at 0.01 uM incubated for 48 hrs by sulforhodamine B assay relative to control; details: MDA-MB-468, 48 h, read-out: Activity
MOLT-4 = assay: Growth inhibition of human MOLT4 cells assessed as cell growth at 0.1 uM incubated for 48 hrs by sulforhodamine B assay relative to control; details: MOLT-4, 48 h, read-out: Activity
SK-MEL-5 [3] = assay: Growth inhibition of human SK-MEL-5 cells assessed as cell growth at 0.1 uM incubated for 48 hrs by sulforhodamine B assay relative to control; details: SK-MEL-5, 48 h, read-out: Activity
OVCAR-4 = assay: Growth inhibition of human OVCAR4 cells assessed as cell growth at 0.1 uM incubated for 48 hrs by sulforhodamine B assay relative to control; details: OVCAR-4, 48 h, read-out: Activity
NCI/ADR-RES = assay: Growth inhibition of human NCI-ADR-RES cells assessed as cell growth at 0.1 uM incubated for 48 hrs by sulforhodamine B assay relative to control; details: read-out: Activity
786-0 = assay: Growth inhibition of human 786-0 cells assessed as cell growth at 0.1 uM incubated for 48 hrs by sulforhodamine B assay relative to control; details: 786-0, 48 h, read-out: Activity
BT-549 = assay: Growth inhibition of human BT549 cells assessed as cell growth at 0.1 uM incubated for 48 hrs by sulforhodamine B assay relative to control; details: BT-549, 48 h, read-out: Activity
NCI-H23 = assay: Growth inhibition of human NCI-H23 cells assessed as cell growth at 1 uM incubated for 48 hrs by sulforhodamine B assay relative to control; details: NCI-H23, 48 h, read-out: Activity
NCI-H322M = assay: Growth inhibition of human NCI-H322M cells assessed as cell growth at 1 uM incubated for 48 hrs by sulforhodamine B assay relative to control; details: read-out: Activity
HCT-116 = assay: Growth inhibition of human HCT116 cells assessed as cell growth at 1 uM incubated for 48 hrs by sulforhodamine B assay relative to control; details: HCT-116, 48 h, read-out: Activity
HCT-15 = assay: Growth inhibition of human HCT15 cells assessed as cell growth at 1 uM incubated for 48 hrs by sulforhodamine B assay relative to control; details: HCT-15, 48 h, read-out: Activity
HT-29 = assay: Growth inhibition of human HT-29 cells assessed as cell growth at 1 uM incubated for 48 hrs by sulforhodamine B assay relative to control; details: HT-29, 48 h, read-out: Activity
SF-295 [4] = assay: Growth inhibition of human SF295 cells assessed as cell growth at 1 uM incubated for 48 hrs by sulforhodamine B assay relative to control; details: SF-295, 48 h, read-out: Activity
A549 [5] = assay: Growth inhibition of human A549/ATCC cells assessed as cell growth at 100 uM incubated for 48 hrs by sulforhodamine B assay relative to control; details: A549, 48 h, read-out: Activity
NCI-H522 [6] = assay: Growth inhibition of human NCI-H522 cells assessed as cell growth at 100 uM incubated for 48 hrs by sulforhodamine B assay relative to control; details: NCI-H522, 48 h, read-out: Activity
SW-620 = assay: Growth inhibition of human SW620 cells assessed as cell growth at 100 uM incubated for 48 hrs by sulforhodamine B assay relative to control; details: SW-620, 48 h, read-out: Activity
SF-295 [7] = assay: Growth inhibition of human SF295 cells assessed as cell growth at 100 uM incubated for 48 hrs by sulforhodamine B assay relative to control; details: SF-295, 48 h, read-out: Activity
SK-MEL-5 [8] = assay: Growth inhibition of human SK-MEL-5 cells assessed as cell growth at 100 uM incubated for 48 hrs by sulforhodamine B assay relative to control; details: SK-MEL-5, 48 h, read-out: Activity
UACC-257 = assay: Growth inhibition of human UACC257 cells assessed as cell growth at 100 uM incubated for 48 hrs by sulforhodamine B assay relative to control; details: UACC-257, 48 h, read-out: Activity
[9] = read-out: LC50 (the source's name)
[10] = read-out: pLC50 (the source's name) (converted)

c1ccc2c3c([nH]c2c1)C(c1ccc(C2NCCc4c2[nH]c2ccccc42)cc1)NCC3 (racemic)
CC50 (RPMI-8226; [9]): 1230 nM | GI50 (RPMI-8226; read-out: pGI50 (converted)): 339 nM | CC50 (RPMI-8226; [10]): 12300 nM | TGI (RPMI-8226; read-out: pTGI (converted)): 1100 nM | CC50 (SNB-75; [9]): 4590 nM | GI50 (SNB-75; read-out: pGI50 (converted)): 692 nM | CC50 (SNB-75; [10]): 4570 nM | TGI (SNB-75; read-out: pTGI (converted)): 2090 nM | GI50 (OVCAR-3; read-out: GI50): 1240 nM | CC50 (OVCAR-3; [9]): 5430 nM | TGI (OVCAR-3; read-out: TGI): 2600 nM | GI50 (OVCAR-3; read-out: pGI50 (converted)): 1230 nM | CC50 (OVCAR-3; [10]): 5500 nM | TGI (OVCAR-3; read-out: pTGI (converted)): 2570 nM | growth at 0.01 µM (HL-60(TB)): 109% | growth at 0.01 µM (A549 [1]): 104% | growth at 0.01 µM (EKVX): 88% | growth at 0.01 µM (HOP-92): 86% | growth at 0.01 µM (NCI-H460): 105% | growth at 0.01 µM (NCI-H522 [2]): 104% | growth at 0.01 µM (U-251): 98% | growth at 0.01 µM (MCF7): 88% | growth at 0.01 µM (Hs-578T): 93% | growth at 0.01 µM (T47D): 82% | growth at 0.01 µM (MDA-MB-468): 95% | growth at 0.1 µM (MOLT-4): 101% | growth at 0.1 µM (SK-MEL-5 [3]): 101% | growth at 0.1 µM (OVCAR-4): 91% | growth at 0.1 µM (NCI/ADR-RES): 93% | growth at 0.1 µM (786-0): 103% | growth at 0.1 µM (BT-549): 95% | growth at 1 µM (NCI-H23): 85% | growth at 1 µM (NCI-H322M): 65% | growth at 1 µM (HCT-116): 81% | growth at 1 µM (HCT-15): 24% | growth at 1 µM (HT-29): 16% | growth at 1 µM (SF-295 [4]): 84% | growth at 100 µM (A549 [5]): 87% | growth at 100 µM (NCI-H522 [6]): 81% | growth at 100 µM (SW-620): 87% | growth at 100 µM (SF-295 [7]): 89% | growth at 100 µM (SK-MEL-5 [8]): 93% | growth at 100 µM (UACC-257): 94%

c1ccc2[nH]c(-c3ccc(-c4nccc5c4[nH]c4ccccc45)cc3)nc2c1
GI50 (RPMI-8226; read-out: GI50): 2480 nM | CC50 (RPMI-8226; [9]): > 1000 nM | TGI (RPMI-8226; read-out: TGI): 5610 nM | GI50 (RPMI-8226; read-out: pGI50 (converted)): 2450 nM | CC50 (RPMI-8226; [10]): > 100000 nM | TGI (RPMI-8226; read-out: pTGI (converted)): 5620 nM | GI50 (SNB-75; read-out: GI50): 1570 nM | CC50 (SNB-75; [9]): 1190 nM | TGI (SNB-75; read-out: TGI): 4080 nM | GI50 (SNB-75; read-out: pGI50 (converted)): 1580 nM | CC50 (SNB-75; [10]): 12000 nM | TGI (SNB-75; read-out: pTGI (converted)): 4070 nM | GI50 (OVCAR-3; read-out: GI50): 1800 nM | CC50 (OVCAR-3; [9]): 7360 nM | TGI (OVCAR-3; read-out: TGI): 3640 nM | GI50 (OVCAR-3; read-out: pGI50 (converted)): 1820 nM | CC50 (OVCAR-3; [10]): 7410 nM | TGI (OVCAR-3; read-out: pTGI (converted)): 3630 nM | growth at 0.01 µM (HL-60(TB)): 95% | growth at 0.01 µM (A549 [1]): 98% | growth at 0.01 µM (EKVX): 94% | growth at 0.01 µM (HOP-92): 85% | growth at 0.01 µM (NCI-H460): 107% | growth at 0.01 µM (NCI-H522 [2]): 91% | growth at 0.01 µM (U-251): 101% | growth at 0.01 µM (MCF7): 91% | growth at 0.01 µM (Hs-578T): 99% | growth at 0.01 µM (T47D): 88% | growth at 0.01 µM (MDA-MB-468): 90% | growth at 0.1 µM (MOLT-4): 98% | growth at 0.1 µM (SK-MEL-5 [3]): 100% | growth at 0.1 µM (OVCAR-4): 98% | growth at 0.1 µM (NCI/ADR-RES): 98% | growth at 0.1 µM (786-0): 92% | growth at 0.1 µM (BT-549): 92% | growth at 1 µM (NCI-H23): 88% | growth at 1 µM (NCI-H322M): 96% | growth at 1 µM (HCT-116): 90% | growth at 1 µM (HCT-15): 93% | growth at 1 µM (HT-29): 106% | growth at 1 µM (SF-295 [4]): 94% | growth at 100 µM (A549 [5]): 58% | growth at 100 µM (NCI-H522 [6]): 46% | growth at 100 µM (SW-620): 33% | growth at 100 µM (SF-295 [7]): 71% | growth at 100 µM (SK-MEL-5 [8]): 86% | growth at 100 µM (UACC-257): 81%
